Source: PubChem BioAssay (NCI)
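Compound exposure: 48 hours, 5 concentrations, 96-well plates. GI50 = concentration required for 50% inhibition of growth. TGI: total growth inhibition.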

What was measured:
Assay in all cases: DTP human tumour cell line panel, 48 h
PC-3 prostate = tested on: PC-3 prostate
ACHN renal = tested on: ACHN renal
SK-MEL-28 melanoma = tested on: SK-MEL-28 melanoma
RXF 393 renal = tested on: RXF 393 renal
EKVX NSCLC = tested on: EKVX NSCLC
HOP-92 NSCLC = tested on: HOP-92 NSCLC
MALME-3M melanoma = tested on: MALME-3M melanoma
UACC-257 melanoma = tested on: UACC-257 melanoma
TK-10 renal = tested on: TK-10 renal
SNB-19 CNS = tested on: SNB-19 CNS
NCI-H522 lung = tested on: NCI-H522 lung
HCT-116 colon = tested on: HCT-116 colon
A549 NSCLC = tested on: A549 NSCLC
MDA-MB-231 breast = tested on: MDA-MB-231 breast
HT29 colon = tested on: HT29 colon
MCF7 breast = tested on: MCF7 breast
KM12 colon = tested on: KM12 colon
OVCAR-5 ovarian = tested on: OVCAR-5 ovarian
SW-620 colon = tested on: SW-620 colon
DU-145 prostate = tested on: DU-145 prostate
LOX IMVI melanoma = tested on: LOX IMVI melanoma
OVCAR-3 ovarian = tested on: OVCAR-3 ovarian
HCC-2998 colon = tested on: HCC-2998 colon
A498 renal = tested on: A498 renal
NCI-H23 lung = tested on: NCI-H23 lung
SF-268 CNS = tested on: SF-268 CNS
786-0 renal = tested on: 786-0 renal
M14 melanoma = tested on: M14 melanoma
SK-MEL-2 melanoma = tested on: SK-MEL-2 melanoma
UACC-62 melanoma = tested on: UACC-62 melanoma
OVCAR-4 ovarian = tested on: OVCAR-4 ovarian
MDA-MB-435 = tested on: MDA-MB-435
HS 578T breast = tested on: HS 578T breast
SN12C renal = tested on: SN12C renal
BT-549 breast = tested on: BT-549 breast
CAKI-1 renal = tested on: CAKI-1 renal
SNB-75 CNS = tested on: SNB-75 CNS
SF-539 CNS = tested on: SF-539 CNS
OVCAR-8 ovarian = tested on: OVCAR-8 ovarian
NCI-H460 lung = tested on: NCI-H460 lung
IGROV1 ovarian = tested on: IGROV1 ovarian
UO-31 renal = tested on: UO-31 renal
SK-MEL-5 melanoma = tested on: SK-MEL-5 melanoma
SF-295 CNS = tested on: SF-295 CNS
HCT-15 colon = tested on: HCT-15 colon
U251 CNS = tested on: U251 CNS
HOP-62 NSCLC = tested on: HOP-62 NSCLC

CN1CCN(CCOc2ccc(-c3cnc4c(-c5ccc(C(F)(F)F)cc5)cnn4c3)cc2)CC1
GI50 (PC-3 prostate): 1.43 µM | TGI (PC-3 prostate): 2.86 µM | GI50 (ACHN renal): 1.57 µM | TGI (ACHN renal): 2.91 µM | GI50 (SK-MEL-28 melanoma): 1.68 µM | TGI (SK-MEL-28 melanoma): 3.11 µM | GI50 (RXF 393 renal): 1.55 µM | TGI (RXF 393 renal): 3.07 µM | GI50 (EKVX NSCLC): 1.51 µM | TGI (EKVX NSCLC): 2.97 µM | GI50 (HOP-92 NSCLC): 1.07 µM | TGI (HOP-92 NSCLC): 2.33 µM | GI50 (MALME-3M melanoma): 1.48 µM | TGI (MALME-3M melanoma): 2.89 µM | GI50 (UACC-257 melanoma): 1.66 µM | TGI (UACC-257 melanoma): 3.34 µM | GI50 (TK-10 renal): 1.72 µM | TGI (TK-10 renal): 3.24 µM | GI50 (SNB-19 CNS): 1.72 µM | TGI (SNB-19 CNS): 3.22 µM | GI50 (NCI-H522 lung): 1.55 µM | TGI (NCI-H522 lung): 3.16 µM | GI50 (HCT-116 colon): 1.38 µM | TGI (HCT-116 colon): 2.81 µM | GI50 (A549 NSCLC): 1.63 µM | TGI (A549 NSCLC): 3.3 µM | GI50 (MDA-MB-231 breast): 1.5 µM | TGI (MDA-MB-231 breast): 2.95 µM | GI50 (HT29 colon): 0.993 µM | TGI (HT29 colon): 2.38 µM | GI50 (MCF7 breast): 1.21 µM | TGI (MCF7 breast): 2.86 µM | GI50 (KM12 colon): 1.71 µM | TGI (KM12 colon): 3.21 µM | GI50 (OVCAR-5 ovarian): 1.59 µM | TGI (OVCAR-5 ovarian): 2.96 µM | GI50 (SW-620 colon): 1.76 µM | TGI (SW-620 colon): 3.27 µM | GI50 (DU-145 prostate): 1.59 µM | TGI (DU-145 prostate): 2.93 µM | GI50 (LOX IMVI melanoma): 1.62 µM | TGI (LOX IMVI melanoma): 3.15 µM | GI50 (OVCAR-3 ovarian): 1.55 µM | TGI (OVCAR-3 ovarian): 2.94 µM | GI50 (HCC-2998 colon): 1.67 µM | TGI (HCC-2998 colon): 3.34 µM | GI50 (A498 renal): 1.37 µM | TGI (A498 renal): 2.76 µM | GI50 (NCI-H23 lung): 1.62 µM | TGI (NCI-H23 lung): 3.14 µM | GI50 (SF-268 CNS): 1.7 µM | TGI (SF-268 CNS): 3.44 µM | GI50 (786-0 renal): 1.67 µM | TGI (786-0 renal): 3.16 µM | GI50 (M14 melanoma): 1.7 µM | TGI (M14 melanoma): 3.25 µM | GI50 (SK-MEL-2 melanoma): 1.82 µM | TGI (SK-MEL-2 melanoma): 3.52 µM | GI50 (UACC-62 melanoma): 1.69 µM | TGI (UACC-62 melanoma): 3.13 µM | GI50 (OVCAR-4 ovarian): 1.16 µM | TGI (OVCAR-4 ovarian): 2.48 µM | GI50 (MDA-MB-435): 1.61 µM | TGI (MDA-MB-435): 3.02 µM | GI50 (HS 578T breast): 1.62 µM | TGI (HS 578T breast): 3.41 µM | GI50 (SN12C renal): 1.66 µM | TGI (SN12C renal): 3.1 µM | GI50 (BT-549 breast): 1.62 µM | TGI (BT-549 breast): 3.04 µM | GI50 (CAKI-1 renal): 1.42 µM | TGI (CAKI-1 renal): 2.72 µM | GI50 (SNB-75 CNS): 1.5 µM | TGI (SNB-75 CNS): 2.88 µM | GI50 (SF-539 CNS): 1.64 µM | TGI (SF-539 CNS): 3.04 µM | GI50 (OVCAR-8 ovarian): 1.75 µM | TGI (OVCAR-8 ovarian): 3.46 µM | GI50 (NCI-H460 lung): 1.16 µM | TGI (NCI-H460 lung): 2.44 µM | GI50 (IGROV1 ovarian): 1.55 µM | TGI (IGROV1 ovarian): 3.06 µM | GI50 (UO-31 renal): 1.34 µM | TGI (UO-31 renal): 2.65 µM | GI50 (SK-MEL-5 melanoma): 1.63 µM | TGI (SK-MEL-5 melanoma): 3.03 µM | GI50 (SF-295 CNS): 1.75 µM | TGI (SF-295 CNS): 3.31 µM | GI50 (HCT-15 colon): 1.02 µM | TGI (HCT-15 colon): 2.31 µM | GI50 (U251 CNS): 1.3 µM | TGI (U251 CNS): 2.67 µM | GI50 (HOP-62 NSCLC): 1.63 µM | TGI (HOP-62 NSCLC): 3.55 µM
